Tests used:
Experiment in all cases: relative viability (nuclei count vs DMSO), 5 days (fraction); higher = more cells survive
[1] = compound: CCC1=CN=CN=C1N2CCN(CC2)CC3=NC4=C(N3)C=C(C=C4)C(F)(F)F + CC1(C)CCC(c2ccc(Cl)cc2)=C(CN2CCN(c3ccc(C(=O)NS(=O)(=O)c4ccc(N[C@H](CCN5CCOCC5)CSc5ccccc5)c(S(=O)(=O)C(F)(F)F)c4)cc3)CC2)C1 [Navitoclax] (partner 0.5 µM)
Outline: (§1)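 Dosing by pin tool came one day after lung cancer cell lines were seeded in 1536-well plates, using either one drug or a fixed anchor-drug dose plus five library-drug doses (not always all listed) in √10 steps. After 5 days, nuclei were counted on 4× images. Relative viability is treated-well nuclei count divided by vehicle-well nuclei count, and values are medians of duplicate plates.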

Mirin + Navitoclax = compound: N=C1NC(=O)/C(=C/c2ccc(O)cc2)S1 [Mirin] + CC1(C)CCC(c2ccc(Cl)cc2)=C(CN2CCN(c3ccc(C(=O)NS(=O)(=O)c4ccc(N[C@H](CCN5CCOCC5)CSc5ccccc5)c(S(=O)(=O)C(F)(F)F)c4)cc3)CC2)C1 [Navitoclax] (partner 0.5 µM)
Outline: as §1

Mirin + Tozasertib = compound: N=C1NC(=O)/C(=C/c2ccc(O)cc2)S1 [Mirin] + Cc1cc(Nc2cc(N3CCN(C)CC3)nc(Sc3ccc(NC(=O)C4CC4)cc3)n2)n[nH]1 [Tozasertib] (partner 0.1 µM)
Outline: as §1

Mirin + Alpelisib = compound: N=C1NC(=O)/C(=C/c2ccc(O)cc2)S1 [Mirin] + Cc1nc(NC(=O)N2CCC[C@H]2C(N)=O)sc1-c1ccnc(C(C)(C)C(F)(F)F)c1 [Alpelisib] (partner 2 µM)
Outline: as §1

Row | Cell Line | relative viability ([1]; first compound 0.04 µM) | relative viability ([1]; first compound 0.1265 µM) | relative viability ([1]; first compound 0.4 µM) | relative viability ([1]; first compound 1.265 µM) | relative viability ([1]; first compound 4 µM) | relative viability (Mirin + Navitoclax; first compound 0.25 µM) | relative viability (Mirin + Navitoclax; first compound 0.7906 µM) | relative viability (Mirin + Navitoclax; first compound 2.5 µM) | relative viability (Mirin + Navitoclax; first compound 7.906 µM) | relative viability (Mirin + Navitoclax; first compound 25 µM) | relative viability (Mirin + Tozasertib; first compound 0.25 µM) | relative viability (Mirin + Tozasertib; first compound 0.7906 µM) | relative viability (Mirin + Tozasertib; first compound 2.5 µM) | relative viability (Mirin + Tozasertib; first compound 7.906 µM) | relative viability (Mirin + Tozasertib; first compound 25 µM) | relative viability (Mirin + Alpelisib; first compound 0.25 µM) | relative viability (Mirin + Alpelisib; first compound 0.7906 µM) | relative viability (Mirin + Alpelisib; first compound 2.5 µM) | relative viability (Mirin + Alpelisib; first compound 7.906 µM) | relative viability (Mirin + Alpelisib; first compound 25 µM)
1 | 201T | 1.23 | 1.19 | 1.16 | 1.17 | 1.23 | 1.18 | 1.27 | 1.18 | 1.32 | 1.33 | 0.929 | 0.982 | 0.88 | 0.881 | 0.599 | 1.01 | 1 | 1.02 | 1.11 | 1.14
2 | A549 | 1.14 | 1.13 | 1.12 | 1.16 | 0.945 | 1.09 | 1.38 | 1.08 | 1.32 | 1.31 |  |  |  |  |  | 0.635 | 0.719 | 0.58 | 0.58 | 0.733
3 | A-427 | 0.873 | 0.9 | 0.915 | 0.872 | 0.826 | 0.942 |  | 0.955 | 0.941 | 1.11 | 0.196 |  | 0.202 | 0.143 | 0.158 | 1.2 |  | 1.15 | 1.1 | 1.14
4 | ABC-1 |  |  |  |  |  |  |  |  |  |  | 0.167 | 0.235 | 0.197 | 0.223 | 0.193 | 1.34 | 1.14 | 1.09 | 1.1 | 0.633
5 | BEN | 0.0475 | 0.075 | 0.0493 | 0.0611 | 0.0644 | 0.0987 | 0.0819 | 0.0674 | 0.0737 | 0.0559 | 0.438 | 0.584 | 0.523 | 0.553 | 0.456 | 1.03 | 1.08 | 1.09 | 0.973 | 0.467
6 | CAL-12T | 1.26 | 1.28 | 1.21 | 1.23 | 1.17 | 0.854 | 1.49 | 1.26 | 1.26 | 1.66 | 0.282 |  | 0.317 | 0.283 | 0.222 | 1 | 1.36 | 1.15 | 1.23 | 1.34
7 | COR-L23 | 1.02 | 0.853 | 1.02 | 0.959 | 0.968 | 1.02 | 1.06 | 1.04 | 1.07 | 0.966 | 0.162 | 0.213 | 0.17 | 0.15 | 0.132 | 0.847 | 0.822 | 0.758 | 0.715 | 0.682
8 | COR-L 105 | 0.714 | 0.717 | 0.695 | 0.868 | 0.651 | 1.02 | 0.817 | 0.884 | 0.703 | 0.719 | 0.341 | 0.384 | 0.343 | 0.401 | 0.309 | 0.914 | 1.26 | 1.13 | 0.925 | 1.04
9 | Calu-6 | 0.818 | 0.779 | 0.721 | 0.713 | 0.717 | 0.879 | 1 | 0.839 | 0.806 | 0.794 |  |  |  |  |  | 0.922 | 1.07 | 1.02 | 0.831 | 0.769
10 | ChaGo-K-1 |  | 1 | 0.927 | 0.936 | 0.942 | 0.974 |  | 0.997 | 0.849 | 0.85 | 0.234 | 0.222 | 0.241 | 0.215 | 0.171 |  |  |  |  | 
11 | EBC-1 | 0.422 | 0.49 | 0.396 | 0.415 | 0.434 | 0.419 | 0.479 | 0.456 | 0.368 | 0.144 |  |  |  |  |  | 0.952 | 0.984 | 0.862 | 0.587 | 0.553
12 | EKVX | 0.96 | 0.96 | 0.886 | 0.724 | 0.977 | 1.01 | 0.932 | 1.11 | 0.875 | 0.968 | 0.397 | 0.323 | 0.368 | 0.322 | 0.345 | 0.909 | 0.817 | 0.992 | 0.773 | 0.788
13 | EMC-BAC-2 | 1.15 | 1.14 | 1.14 | 1.14 | 1.2 | 1.16 | 1.29 | 1.17 | 1.08 | 1.17 | 0.274 | 0.28 | 0.284 | 0.228 | 0.162 | 0.771 | 0.838 | 0.756 | 0.698 | 0.685
14 | EPLC-272H | 0.973 | 1.05 | 1.11 | 1.07 | 1.31 | 1.08 |  | 1.09 | 0.965 | 0.808 | 0.267 |  | 0.262 | 0.127 | 0.15 | 0.89 |  | 1.02 | 0.779 | 0.815
15 | H3255 | 0.489 | 0.469 | 0.507 | 0.49 | 0.529 | 0.499 | 0.59 | 0.628 | 0.513 | 0.47 | 0.677 | 0.639 | 0.698 | 0.555 | 0.602 | 0.719 | 0.814 | 0.674 | 0.576 | 0.92
16 | HARA | 1.18 | 1.13 | 1.15 | 1.11 | 1.19 | 1.07 | 1.21 | 1.14 | 1.28 | 1.2 | 0.126 |  | 0.107 | 0.0865 | 0.0791 | 0.889 | 0.968 | 0.858 | 0.805 | 0.612
17 | HCC-15 | 0.702 | 0.67 | 0.757 | 0.694 | 0.71 | 0.755 | 0.689 | 0.762 | 0.713 | 0.52 | 0.336 | 0.344 | 0.359 | 0.202 | 0.177 | 0.851 | 0.859 | 0.928 | 0.798 | 0.593
18 | HCC-44 | 1.01 | 1.06 | 0.895 | 0.823 | 0.919 | 1 | 0.967 | 0.916 | 0.945 | 0.989 | 1.06 | 0.433 | 0.93 | 0.824 | 0.404 | 0.852 | 0.879 | 0.806 | 0.762 | 0.705
